Assay results: PubChem BioAssay AID2060509 (Molecular Pharmacology Branch, DTP, NCI, 2025)

Test system: 485176-168-R4-J1-PDC spheroids with HUVEC/MSC, viability
Test: Anticancer human tumor 485176-168-R4-J1-PDC patient-derived pancreatic adenocarcinoma cell line growth inhibition [GQUAD]
Details: for IC50: curve of first compound; for viability, T/C: stronger effect = lower value
In short: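 Tumor cells were grown as complex spheroids with HUVEC endothelial cells and mesenchymal stem cells as stroma. G-quadruplex stabilizers were combined with targeted agents over half-log dilutions from near the clinical Cmax, or from 10 microM.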

[1] = second compound 0.0316 µM, first compound 0.0316 µM
[2] = second compound 0.0316 µM, first compound 0.1 µM
[3] = second compound 0.0316 µM, first compound 0.316 µM
[4] = second compound 0.0316 µM, first compound 1 µM
[5] = second compound 0.0316 µM, first compound 3.16 µM
[6] = second compound 0.0316 µM, first compound 10 µM
[7] = second compound 0.1 µM, first compound 0.0316 µM
[8] = second compound 0.1 µM, first compound 0.1 µM
[9] = second compound 0.1 µM, first compound 0.316 µM
[10] = second compound 0.1 µM, first compound 1 µM
[11] = second compound 0.1 µM, first compound 3.16 µM
[12] = second compound 0.1 µM, first compound 10 µM
[13] = second compound 0.316 µM, first compound 0.0316 µM
[14] = second compound 0.316 µM, first compound 0.1 µM
[15] = second compound 0.316 µM, first compound 0.316 µM
[16] = second compound 0.316 µM, first compound 1 µM
[17] = second compound 0.316 µM, first compound 3.16 µM
[18] = second compound 0.316 µM, first compound 10 µM
[19] = second compound 1 µM, first compound 0.0316 µM
[20] = second compound 1 µM, first compound 0.1 µM
[21] = second compound 1 µM, first compound 0.316 µM
[22] = second compound 1 µM, first compound 1 µM
[23] = second compound 1 µM, first compound 3.16 µM
[24] = second compound 1 µM, first compound 10 µM
[25] = second compound 3.16 µM, first compound 0.0316 µM
[26] = second compound 3.16 µM, first compound 0.1 µM
[27] = second compound 3.16 µM, first compound 0.316 µM
[28] = second compound 3.16 µM, first compound 1 µM
[29] = second compound 3.16 µM, first compound 3.16 µM
[30] = second compound 3.16 µM, first compound 10 µM
[31] = second compound 10 µM, first compound 0.0316 µM
[32] = second compound 10 µM, first compound 0.1 µM
[33] = second compound 10 µM, first compound 0.316 µM
[34] = second compound 10 µM, first compound 1 µM
[35] = second compound 10 µM, first compound 3.16 µM
[36] = second compound 10 µM, first compound 10 µM
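Further: spheroids exposed to compounds for seven days before readout.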
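Wherever viability, T/C is given: percent viability relative to DMSO vehicle control wells as 100%.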

C#Cc1c(F)ccc2cc(O)cc(-c3ncc4c(N5CC6CCC(C5)N6)nc(OCC56CCCN5CC(F)C6)nc4c3F)c12 (centres undefined) + Cc1cnc(CNC(=O)c2c(=O)c3ccc(N4CCCN(C)CC4)nc3n3c2sc2ccccc23)cn1
IC50 (second compound 0.0316 µM): > 10000 nM
IC50 (second compound 0.1 µM): > 10000 nM
IC50 (second compound 0.316 µM): > 10000 nM
IC50 (second compound 1 µM): < 31.6 nM
IC50 (second compound 3.16 µM): < 31.6 nM
IC50 (second compound 10 µM): < 31.6 nM
viability, T/C [1]: 97%
viability, T/C [2]: 89.9%
viability, T/C [3]: 97.7%
viability, T/C [4]: 81%
viability, T/C [5]: 91.9%
viability, T/C [6]: 87.8%
viability, T/C [7]: 78.4%
viability, T/C [8]: 80%
viability, T/C [9]: 68.4%
viability, T/C [10]: 72.3%
viability, T/C [11]: 72.8%
viability, T/C [12]: 76.3%
viability, T/C [13]: 59.3%
viability, T/C [14]: 60%
viability, T/C [15]: 62.3%
viability, T/C [16]: 61.6%
viability, T/C [17]: 63.3%
viability, T/C [18]: 50.9%
viability, T/C [19]: 45.2%
viability, T/C [20]: 50.1%
viability, T/C [21]: 48.6%
viability, T/C [22]: 50.3%
viability, T/C [23]: 45.7%
viability, T/C [24]: 50.5%
viability, T/C [25]: 44%
viability, T/C [26]: 44.7%
viability, T/C [27]: 44.4%
viability, T/C [28]: 38.1%
viability, T/C [29]: 48.7%
viability, T/C [30]: 44.6%
viability, T/C [31]: 40.5%
viability, T/C [32]: 40.4%
viability, T/C [33]: 36.4%
viability, T/C [34]: 35.1%
viability, T/C [35]: 37.5%
viability, T/C [36]: 37.4%

C=CCn1c(=O)c2cnc(Nc3ccc(N4CCN(C)CC4)cc3)nc2n1-c1cccc(C(C)(C)O)n1 + Cc1cnc(CNC(=O)c2c(=O)c3ccc(N4CCCN(C)CC4)nc3n3c2sc2ccccc23)cn1
IC50 (second compound 0.0316 µM): 233 nM
IC50 (second compound 0.1 µM): 165 nM
IC50 (second compound 0.316 µM): 123 nM
IC50 (second compound 1 µM): 36.5 nM
IC50 (second compound 3.16 µM): < 31.6 nM
IC50 (second compound 10 µM): < 31.6 nM
viability, T/C [1]: 81.7%
viability, T/C [2]: 64.8%
viability, T/C [3]: 47.2%
viability, T/C [4]: 11.5%
viability, T/C [5]: 7.79%
viability, T/C [6]: 3.94%
viability, T/C [7]: 69.3%
viability, T/C [8]: 70.4%
viability, T/C [9]: 24.1%
viability, T/C [10]: 10.6%
viability, T/C [11]: 6.45%
viability, T/C [12]: 3.77%
viability, T/C [13]: 64%
viability, T/C [14]: 55.9%
viability, T/C [15]: 25%
viability, T/C [16]: 9.59%
viability, T/C [17]: 6.42%
viability, T/C [18]: 3.31%
viability, T/C [19]: 52%
viability, T/C [20]: 36.4%
viability, T/C [21]: 22.1%
viability, T/C [22]: 10.2%
viability, T/C [23]: 5.94%
viability, T/C [24]: 4.18%
viability, T/C [25]: 47.6%
viability, T/C [26]: 40.1%
viability, T/C [27]: 18.2%
viability, T/C [28]: 9.87%
viability, T/C [29]: 4.56%
viability, T/C [30]: 5.42%
viability, T/C [31]: 34.4%
viability, T/C [32]: 37.5%
viability, T/C [33]: 24.6%
viability, T/C [34]: 10.6%
viability, T/C [35]: 0.49%
viability, T/C [36]: 0.25%
